Experimental data as given in patent US20130071521A1, “REBAUDIOSIDE D SWEETENERS AND FOOD PRODUCTS SWEETENED WITH REBAUDIOSIDE D” (PEPSICO, INC., priority 2007, published 2013).
Where a SMILES comes first, the peptide text is derived from it.

Key:
[1] = cited from earlier work; for potency, times as sweet as sugar: commonly accepted potency figures
[2] = Kinghorn (2002) page 138, cited from earlier work; for relative quality of taste, as compared to stevioside: stevioside is rated 0
[3] = test system: sensory panel of twelve testers; experiment: Sensory panel evaluation of initial sweetness characteristics of sweeteners in water (Example 1); type: in vivo; settings: for initial sweetness perception: FIG. 2/FIG. 4; for initial bitterness perception: FIG. 3/FIG. 5
Description: Sensory evaluations of different sweeteners at various concentrations were performed to provide comparative analysis of organoleptic characteristics of aqueous solutions of rebaudioside D, versus other sweeteners. The rebaudioside D was a stevia extract having a purity of at least 93% by weight rebaudioside D (Reb D). Initial sweetness characteristics of three concentrations of such Reb D in water were determined by a sensory panel of twelve testers. Sensory panels are well known to those of skill in the art, and comprise testers trained to evaluate the organoleptic attributes of comestibles. Typically, sensory panelists have been screened for their taste acuity and extensively trained in the use of standardized vocabulary to describe the appearance, aroma, flavor, mouthfeel and aftertaste of a wide variety of products, as well as scaling techniques to quantify the attributes. The numerical data generated by the sensory panel testers were then analyzed for their statistical significance.
The water employed in the tests of Example 1 comprised purified water as described in detail above, and having a pH of 7.0. The initial sweetness characteristics of 1200 parts per million (ppm) Reb D in water were compared to the initial sweetness characteristics of aqueous solutions of each of 1200 ppm rebaudioside A (Reb A), sucrose, aspartame and sucralose. The rebaudioside A was a stevia extract comprising a purity of 95% by weight rebaudioside A (PureCircle USA Inc., Oak Brook, Ill.). The specific attributes tested by the sensory panel comprised sweetness, thickness, astringency, bitterness, numbing, cooling and licorice.
The initial sweetness characteristics of other concentrations of rebaudioside D in water were also tested and compared to the same concentrations of rebaudioside A in water. […] FIGS. 2 through 5 illustrate the differences in the characteristics of sweetness and bitterness attributes between Reb D and Reb A.

[4] = test system: sensory panel of twelve testers; experiment: Sensory panel evaluation in water, noncarbonated beverage base and carbonated beverage base (Example 2); type: in vivo; set-up: Sweetness / Bitterness: scale not given here; settings: for interaction between the sweetener and the three beverage bases (initial sweetness attribute plots): water, noncarbonated and carbonated beverage base
Description: Potential beverage base effects on the initial sweetness perception of rebaudioside D were investigated by performing tests of three concentrations of rebaudioside D (Reb D) in water, in a noncarbonated beverage base, and in a carbonated beverage base, by a sensory panel of twelve testers. The numerical data generated by the sensory panel testers were then analyzed for their statistical significance.
The water employed for the tests of this Example comprised the characteristics as described in Example 1. The noncarbonated beverage base comprised purified water, and citric acid in an amount sufficient to decrease the pH of the noncarbonated beverage base to 3.1. The carbonated beverage base comprised purified water, carbon dioxide, and citric acid in an amount sufficient to decrease the pH of the noncarbonated beverage base to about 3.1. The initial sweetness characteristics of 606 parts per million (ppm) Reb D in water were compared to the initial sweetness characteristics of 606 ppm Reb D in noncarbonated beverage base and 606 ppm Reb D in carbonated beverage base.
The specific attributes tested by the sensory panel comprised sweetness, thickness, astringency, bitterness, numbing, cooling, licorice, burn/tingle and mouthcoat.

[5] = 360 ppm (sucrose 5.4 brix), FIGS. 16-18
[6] = 606 ppm (sucrose 8.5 brix), FIGS. 13-15
[7] = CSD (carbonated beverage base), 360 ppm
[8] = CSD (carbonated beverage base), 606 ppm
[9] = High Level, 1200 ppm, averaged across all three beverage bases
[10] = Low-Medium Level, 360 ppm, averaged across all three beverage bases
[11] = Medium Level, 606 ppm, averaged across all three beverage bases
[12] = NCB (noncarbonated beverage base), 360 ppm
[13] = NCB (noncarbonated beverage base), 606 ppm

Structure (SMILES): CC1=CC(=O)NS(=O)(=O)O1 [Acesulfame-K]
- potency, times as sweet as sugar [1]: 200 times as sweet as sugar

Structure (SMILES): COC(=O)[C@H](Cc1ccccc1)NC(=O)[C@@H](N)CC(=O)O [Aspertame] (HELM PEPTIDE1{D.F.[CO[*:1]]}$$$$V2.0)
- potency, times as sweet as sugar [1]: 200 times as sweet as sugar

Structure (SMILES): C[C@H](CC[C@@H](O[C@@H]1O[C@H](CO[C@@H]2O[C@H](CO)[C@@H](O)[C@H](O)[C@H]2O)[C@@H](O)[C@H](O)[C@H]1O[C@@H]1O[C@H](CO)[C@@H](O)[C@H](O)[C@H]1O)C(C)(C)O)[C@H]1CC[C@@]2(C)[C@@H]3CC=C4[C@@H](CC[C@H](O[C@@H]5O[C@H](CO[C@@H]6O[C@H](CO)[C@@H](O)[C@H](O)[C@H]6O)[C@@H](O)[C@H](O)[C@H]5O)C4(C)C)[C@]3(C)[C@H](O)C[C@]12C [Mogroside V]
- potency, times as sweet as sugar [1]: 100-300 times as sweet as sugar

Structure (SMILES): COc1ccc(CCC(=O)c2c(O)cc(O[C@@H]3O[C@H](CO)[C@@H](O)[C@H](O)[C@H]3O[C@@H]3O[C@@H](C)[C@H](O)[C@@H](O)[C@H]3O)cc2O)cc1O [Neohesperidin dihydrochalcone]
- potency, times as sweet as sugar [1]: 300 times as sweet as sugar

Structure (SMILES): COC(=O)[C@H](Cc1ccccc1)NC(=O)[C@H](CC(=O)O)NCCC(C)(C)C [Neotame]
- potency, times as sweet as sugar [1]: 8,000 times as sweet as sugar

Structure (SMILES): C=C1C[C@@]23CC[C@H]4[C@@](C)(CCC[C@@]4(C)C(=O)O[C@@H]4O[C@H](CO)[C@@H](O)[C@H](O)[C@H]4O)[C@@H]2CC[C@]1(O[C@@H]1O[C@H](CO)[C@@H](O)[C@H](O[C@@H]2O[C@H](CO)[C@@H](O)[C@H](O)[C@H]2O)[C@H]1O[C@@H]1O[C@H](CO)[C@@H](O)[C@H](O)[C@H]1O)C3 [Reb A, rebaudioside A, reference compound]
- sweetness (value reported by Kinghorn) [2]: 242
- relative quality of taste, as compared to stevioside [2]: +2
- sweetness relative to sucrose ([1]; background statement): approximately 200 times sweeter than sucrose
- potency, times as sweet as sugar [1]: 150-200 times as sweet as sugar
- initial sweetness perception ([3]; 360 ppm in water): about 60
- initial bitterness perception ([3]; 360 ppm in water): about 38
- initial sweetness perception ([3]; 1200 ppm in water): about 68
- initial bitterness perception ([3]; 1200 ppm in water): about 85
- interaction between the sweetener and the three beverage bases (initial sweetness attribute plots) [4, 5]: no significant interaction
- interaction between the sweetener and the three beverage bases (initial sweetness attribute plots) [4, 6]: no significant interaction
- Bitterness [4, 7]: 20.5
- Sweetness [4, 7]: 50.7
- Bitterness [4, 8]: 28.2
- Sweetness [4, 8]: 66.0
- Bitterness [4, 9]: 45.1
- Sweetness [4, 9]: 70.6
- Bitterness [4, 10]: 21.0
- Sweetness [4, 10]: 52.6
- Bitterness [4, 11]: 33.4
- Sweetness [4, 11]: 63.5
- Bitterness [4, 12]: 24.4
- Sweetness [4, 12]: 52.3
- Bitterness [4, 13]: 29.8
- Sweetness [4, 13]: 68.5
- Bitterness ([4]; Water, 360 ppm): 21.0
- Sweetness ([4]; Water, 360 ppm): 52.6
- Bitterness ([4]; Water, 606 ppm): 33.4
- Sweetness ([4]; Water, 606 ppm): 63.5

Structure (SMILES): O=C1NS(=O)(=O)c2ccccc21 [Saccharin]
- potency, times as sweet as sugar [1]: 300 times as sweet as sugar

Structure (SMILES): OC[C@H]1O[C@H](O[C@]2(CCl)O[C@H](CCl)[C@@H](O)[C@@H]2O)[C@H](O)[C@@H](O)[C@H]1Cl [Sucralose]
- potency, times as sweet as sugar [1]: 600 times as sweet as sugar

Structure (SMILES): C=C1C[C@@]23CC[C@H]4[C@@](C)(CCC[C@@]4(C)C(=O)O[C@@H]4O[C@H](CO)[C@@H](O)[C@H](O)[C@H]4O)[C@@H]2CC[C@]1(O[C@@H]1O[C@H](CO)[C@@H](O)[C@H](O)[C@H]1O[C@@H]1O[C@H](CO)[C@@H](O)[C@H](O)[C@H]1O)C3 [stevioside]
- relative quality of taste, as compared to stevioside [2]: 0
- potency, times as sweet as sugar [1]: 100-250 times as sweet as sugar

Structure (SMILES): OC[C@H]1O[C@@](CO)(O[C@H]2O[C@H](CO)[C@@H](O)[C@H](O)[C@H]2O)[C@@H](O)[C@@H]1O [sucrose, reference compound]
- interaction between the sweetener and the three beverage bases (initial sweetness attribute plots) [4, 5]: no significant interaction
- interaction between the sweetener and the three beverage bases (initial sweetness attribute plots) [4, 6]: no significant interaction
